In patent US20220356186A1, “PERK INHIBITING PYRROLOPYRIMIDINE COMPOUNDS” (HiberCell, Inc., priority 2019, published 2022):
Where two headings read alike, the source gives them in different places.

What was measured:
[1] = test system: GFP-eIF2α in HEK293 cells; assay: PERK cellular assay, TR-FRET in HEK293-EGFP-eIF2a cells after tunicamycin-induced ER stress; assay type: cell-based; settings: HEK293-EGFP-eIF2a cells, tunicamycin 2 hours, read-out: Cellular eIF2α IC50
Procedure: Stable cell lines were created in HEK293 cells using lentiviral particles harboring an expression vector for GFP-eIF2α. Cells were selected using puromycin and enriched using fluorescence activated cell sorting against GFP. HEK293-EGFP-eIF2a cells were plated at 5000 cells/well in 384-well assay plates and incubated overnight at 37° C., 5% CO2. Inhibitor compounds were added to the wells by Echo acoustic dispensing and incubated for 30 minutes at 37° C., 5% CO2 prior to induction of ER stress by addition of tunicamycin to […] for 2 hours. Cells were lysed and TR-FRET was measured in an EnVision plate reader (PerkinElmer). FRET ratio data was normalized to signal from lysates treated with DMSO vehicle control and plotted as percent inhibition against 10-point; 3-fold dilution series of inhibitors. IC50 values were calculated using 4-parameter logistical fitting in XLFit.

[2] = biological target: T1, EIF2AK3 (PERK) catalytic domain (amino acids 536-1116) (Homo sapiens, UniProt Q9NZJ5); assay: PERK in vitro activity assay (isolated), TR-FRET kinase assay; assay type: biochemical; settings: isolated PERK enzyme, 1.5 μM ATP; read-out: Biochemical IC50
T1 construct: EIF2AK3 (PERK) catalytic domain (amino acids 536-1116)
T1 sequence (Q9NZJ5 536-1116): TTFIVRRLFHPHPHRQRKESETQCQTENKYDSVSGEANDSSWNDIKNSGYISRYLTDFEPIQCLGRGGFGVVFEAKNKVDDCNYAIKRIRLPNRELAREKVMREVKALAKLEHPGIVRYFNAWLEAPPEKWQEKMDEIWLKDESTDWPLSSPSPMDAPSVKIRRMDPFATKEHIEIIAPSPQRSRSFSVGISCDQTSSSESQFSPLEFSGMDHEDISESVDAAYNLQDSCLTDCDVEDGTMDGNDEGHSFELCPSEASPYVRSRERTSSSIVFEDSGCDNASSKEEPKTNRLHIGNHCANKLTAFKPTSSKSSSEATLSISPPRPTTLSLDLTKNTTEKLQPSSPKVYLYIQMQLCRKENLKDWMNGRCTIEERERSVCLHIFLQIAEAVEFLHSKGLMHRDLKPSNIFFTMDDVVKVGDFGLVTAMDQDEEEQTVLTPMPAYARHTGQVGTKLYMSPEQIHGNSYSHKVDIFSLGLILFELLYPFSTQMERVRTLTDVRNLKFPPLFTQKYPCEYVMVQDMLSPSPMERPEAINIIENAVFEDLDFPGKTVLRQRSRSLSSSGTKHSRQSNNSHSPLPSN
Source text: PERK In Vitro Activity Assay (Isolated):
In vitro Inhibition of PERK Enzyme Activity (isolated) Recombinant human EIF2AK2 (PKR) catalytic domain (amino acids 252-551), EIF2AK3 (PERK) catalytic domain (amino acids 536-1116), GFP-eIF2a substrate, and Terbium-labelled phospho-eIF2a antibody is obtained (Invitrogen, Carlsbad, Calif.).
Express and purify HIS-SUMO-GCN2 catalytic domain (amino acids 584-1019) from E. coli. Perform TR-FRET kinase assays in the absence or presence of inhibitors in a reaction buffer consisting of 50 mM HEPES, pH 7.5, 10 mM MgCb, 1.0 mM EGTA, and 0.01% Brij-35, and 100-200 nM GFP-eIF2a substrate. […] Add test compound, initiate the reaction by addition of enzyme, and incubate at room temperature for 45 minutes. Stop the reaction by addition of EDTA to a final concentration of 10 mM, add Terbium-labelled phospho-eIF2a antibody at a final concentration of 2 nM, and incubate for 90 minutes. Monitor the resulting fluorescence in an EnVison® Multilabel reader (PerkinElmer, Waltham, Mass.). Determine TR-FRET ratios and the resulting IC50 values using a 4-parameter nonlinear logistic equation as shown: Y=(A+((B−A)/(1+((C/x)[…])))) where, Y=% specific inhibition, A=Bottom of the curve, B=Top of the curve, C=absolute IC50 (concentration causing 50% inhibition), and D=hill slope.

Row | Structure (SMILES) | IC50 [2] [nM] | IC50 ([1]; Homo sapiens, HEK293, 2 h) [nM] | IC50 [1] [nM]
1 | Cc1cc(NC(=O)C(F)(F)c2ccccc2)ccc1-c1cn(C)c2ncnc(N)c12 [Example 28, N-(4-(4-amino-7-methyl-7H-pyrrolo[2,3-d]pyrimidin-5-yl)-3-methylphenyl)-2,2-difluoro-2-phenylacetamide] | 251 to 500 | 501 to 1000 | 
2 | Cn1cc(-c2ccc(NC(=O)C(O)c3cccc(F)c3)cc2)c2c(N)ncnc21 (stereo not shown) [Example 29, N-(4-(4-amino-7-methyl-7H-pyrrolo[2,3-d]pyrimidin-5-yl)phenyl)-2-(3-fluorophenyl)-2-hydroxyacetamide] | 1 to 25 |  | 1 to 25
3 | Cn1cc(-c2ccc(NC(=O)C(O)c3cccc(F)c3)cc2)c2c(N)ncnc21 (stereo not shown) [Example 30, N-(4-(4-amino-7-methyl-7H-pyrrolo[2,3-d]pyrimidin-5-yl)phenyl)-2-(3-fluorophenyl)-2-hydroxyacetamide] | 1 to 25 |  | 101 to 250
4 | Cc1cc(NC(=O)C(O)c2ccccc2F)ccc1-c1cn(C)c2ncnc(N)c12 (stereo not shown) [Example 31, N-(4-(4-amino-7-methyl-7H-pyrrolo[2,3-d]pyrimidin-5-yl)-3-methylphenyl)-2-(2-fluorophenyl)-2-hydroxyacetamide] | 1 to 25 | 26 to 50 | 
5 | Cc1nc(N)c2c(-c3ccc(NC(=O)C(O)c4ccccc4F)cc3C)cn(C)c2n1 (stereo not shown) [Example 32, N-(4-(4-amino-2,7-dimethyl-7H-pyrrolo[2,3-d]pyrimidin-5-yl)-3-methylphenyl)-2-(2-fluorophenyl)-2-hydroxyacetamide] | 101 to 250 | 251 to 500 | 
6 | Cc1nc(N)c2c(-c3ccc(NC(=O)C(O)c4cccc(Cl)c4)cc3C)cn(C)c2n1 (stereo not shown) [Example 36, N-(4-(4-amino-2,7-dimethyl-7H-pyrrolo[2,3-d]pyrimidin-5-yl)-3-methylphenyl)-2-(3-chlorophenyl)-2-hydroxyacetamide] | 1 to 25 |  | 26 to 50
7 | Cc1nc(N)c2c(-c3ccc(NC(=O)C(O)c4cccc(Cl)c4)cc3C)cn(C)c2n1 (stereo not shown) [Example 37, N-(4-(4-amino-2,7-dimethyl-7H-pyrrolo[2,3-d]pyrimidin-5-yl)-3-methylphenyl)-2-(3-chlorophenyl)-2-hydroxyacetamide] | 1 to 25 |  | 1 to 25
8 | Cc1nc(N)c2c(-c3ccc(NC(=O)C(O)c4cccc(Cl)c4)cc3C)cn(C)c2n1 (stereo not shown) [Example 38, N-(4-(4-amino-2,7-dimethyl-7H-pyrrolo[2,3-d]pyrimidin-5-yl)-3-methylphenyl)-2-(3-chlorophenyl)-2-hydroxyacetamide] | 51 to 100 |  | 501 to 1000
9 | Cc1cc(NC(=O)C(O)c2ccccc2C)ccc1-c1cn(C)c2ncnc(N)c12 (stereo not shown) [Example 39, N-(4-(4-amino-7-methyl-7H-pyrrolo[2,3-d]pyrimidin-5-yl)-3-methylphenyl)-2-hydroxy-2-(o-tolyl)acetamide] | 1 to 25 | 26 to 50 | 
10 | Cc1cccc(C(O)C(=O)Nc2ccc(-c3cn(C)c4ncnc(N)c34)c(C)c2)c1 (stereo not shown) [Example 41, N-(4-(4-amino-7-methyl-7H-pyrrolo[2,3-d]pyrimidin-5-yl)-3-methylphenyl)-2-hydroxy-2-(m-tolyl)acetamide] | 1 to 25 | 1 to 25 | 
11 | Cc1cccc(C(O)C(=O)Nc2ccc(-c3cn(C)c4nc(C)nc(N)c34)c(C)c2)c1 (stereo not shown) [Example 42, N-(4-(4-amino-2,7-dimethyl-7H-pyrrolo[2,3-d]pyrimidin-5-yl)-3-methylphenyl)-2-hydroxy-2-(m-tolyl)acetamide] | 1 to 25 | 51 to 100 | 
12 | Cc1cc(NC(=O)C(O)c2ccccc2C(F)(F)F)ccc1-c1cn(C)c2ncnc(N)c12 (stereo not shown) [Example 45, N-(4-(4-amino-7-methyl-7H-pyrrolo[2,3-d]pyrimidin-5-yl)-3-methylphenyl)-2-hydroxy-2-(2-(trifluoromethyl)phenyl)acetamide] | 1 to 25 | 101 to 250 | 
13 | Cc1nc(N)c2c(-c3ccc(NC(=O)C(O)c4cccc(C(F)(F)F)c4)cc3C)cn(C)c2n1 (stereo not shown) [Example 49, N-(4-(4-amino-2,7-dimethyl-7H-pyrrolo[2,3-d]pyrimidin-5-yl)-3-methylphenyl)-2-hydroxy-2-(3-(trifluoromethyl)phenyl)acetamide] | 1 to 25 |  | 26 to 50
14 | Cc1nc(N)c2c(-c3ccc(NC(=O)C(O)c4cccc(C(F)(F)F)c4)cc3C)cn(C)c2n1 (stereo not shown) [Example 50, N-(4-(4-amino-2,7-dimethyl-7H-pyrrolo[2,3-d]pyrimidin-5-yl)-3-methylphenyl)-2-hydroxy-2-(3-(trifluoromethyl)phenyl)acetamide] | 1 to 25 |  | 1 to 25

The next lines start with results.

Row | IC50 [2] [nM] | Structure (SMILES) | IC50 ([1]; Homo sapiens, HEK293, 2 h) [nM] | IC50 [1] [nM]
15 | 1 to 25 | Cc1cc(NC(=O)C(O)c2ccccc2Cl)ccc1-c1cn(C)c2ncnc(N)c12 (stereo not shown) [Example 33, N-(4-(4-amino-7-methyl-7H-pyrrolo[2,3-d]pyrimidin-5-yl)-3-methylphenyl)-2-(2-chlorophenyl)-2-hydroxyacetamide] | 51 to 100 | 
16 | 101 to 250 | Cc1nc(N)c2c(-c3ccc(NC(=O)C(O)c4ccccc4Cl)cc3C)cn(C)c2n1 (stereo not shown) [Example 34, N-(4-(4-amino-2,7-dimethyl-7H-pyrrolo[2,3-d]pyrimidin-5-yl)-3-methylphenyl)-2-(2-chlorophenyl)-2-hydroxyacetamide] | 501 to 1000 | 
17 | 1 to 25 | Cc1cc(NC(=O)C(O)c2cccc(Cl)c2)ccc1-c1cn(C)c2ncnc(N)c12 (stereo not shown) [Example 35, N-(4-(4-amino-7-methyl-7H-pyrrolo[2,3-d]pyrimidin-5-yl)-3-methylphenyl)-2-(3-chlorophenyl)-2-hydroxyacetamide] | 1 to 25 | 
18 | 26 to 50 | Cc1nc(N)c2c(-c3ccc(NC(=O)C(O)c4ccccc4C)cc3C)cn(C)c2n1 (stereo not shown) [Example 40, N-(4-(4-amino-2,7-dimethyl-7H-pyrrolo[2,3-d]pyrimidin-5-yl)-3-methylphenyl)-2-hydroxy-2-(o-tolyl)acetamide] | 101 to 250 | 
19 | 1 to 25 | CCc1cccc(C(O)C(=O)Nc2ccc(-c3cn(C)c4nc(C)nc(N)c34)c(C)c2)c1 (stereo not shown) [Example 43, N-(4-(4-amino-2,7-dimethyl-7H-pyrrolo[2,3-d]pyrimidin-5-yl)-3-methylphenyl)-2-(3-ethylphenyl)-2-hydroxyacetamide] |  | 1 to 25
20 | 101 to 250 | CCc1cccc(C(O)C(=O)Nc2ccc(-c3cn(C)c4nc(C)nc(N)c34)c(C)c2)c1 (stereo not shown) [Example 44, N-(4-(4-amino-2,7-dimethyl-7H-pyrrolo[2,3-d]pyrimidin-5-yl)-3-methylphenyl)-2-(3-ethylphenyl)-2-hydroxyacetamide] |  | 1000 to 2000
21 | 251 to 500 | Cc1nc(N)c2c(-c3ccc(NC(=O)C(O)c4ccccc4C(F)(F)F)cc3C)cn(C)c2n1 (stereo not shown) [Example 46, N-(4-(4-amino-2,7-dimethyl-7H-pyrrolo[2,3-d]pyrimidin-5-yl)-3-methylphenyl)-2-hydroxy-2-(2-(trifluoromethyl)phenyl)acetamide] | 2000 to 3000 | 
22 | 1 to 25 | Cc1cc(NC(=O)C(O)c2cccc(C(F)(F)F)c2)ccc1-c1cn(C)c2ncnc(N)c12 (stereo not shown) [Example 47, N-(4-(4-amino-7-methyl-7H-pyrrolo[2,3-d]pyrimidin-5-yl)-3-methylphenyl)-2-hydroxy-2-(3-(trifluoromethyl)phenyl)acetamide] |  | 1 to 25
23 | 1 to 25 | Cc1cc(NC(=O)C(O)c2cccc(C(F)(F)F)c2)ccc1-c1cn(C)c2ncnc(N)c12 (stereo not shown) [Example 48, N-(4-(4-amino-7-methyl-7H-pyrrolo[2,3-d]pyrimidin-5-yl)-3-methylphenyl)-2-hydroxy-2-(3-(trifluoromethyl)phenyl)acetamide] |  | 51 to 100
